Laboratory results as given in US20060122106A1, “Prevention and/or treatment of inflammatory bowel disease using pyy or agonists thereof” (Amylin Pharmaceuticals, Inc, priority 2002, published 2006).

System: rat model of chronic colonic inflammation (colitis induced by TNBS)
Test: TNBS hapten-induced colitis model of inflammatory bowel disease (Example 1)
Assay type: in vivo
Details: for gross morphologic damage score index: male HSD rats, colitis by 30 mg/kg TNBS intracolonic, colon scored (0-5, Table 1) four days after induction, saline control 3.24±0.66, PYY[3-36] 900 μg/kg s.c. twice daily, Depo-Medrol 600 μg/kg i.m., 5-ASA 200 mg/kg intracolonic; for spleen weight (systemic immune suppression): rat, in vivo
Method: Animal preparation: 10-11 weeks old male HSD rats, ranging 250-300 grams, were housed in a 12:12 light:dark cycle, and allowed ad libitum access to a standard rodent diet (Teklad L M 485, Madison, Wis.) and water. The animals were fasted for 24 hours before the experiment. Procedure: A simple and reproducible rat model of chronic colonic inflammation has been previously described by Morris G P, et al., “Hapten-induced model of chronic inflammation and ulceration in the rat colon.” Gastroenterology. 1989; 96:795-803. […] Rats were anesthetized with 3% isofluorane and placed on a regulated heating pad set at 37° C. A gavage needle was inserted rectally into the colon 7 cm. The hapten trinitrobenzenesulfonic acid (TNBS) dissolved in 50% ethanol (v/v) was delivered into the lumen of the colon through the gavage needle at a dose of 30 mg/kg, in a total volume of 0.4-0.6 mL, as described in Mazelin, supra. Control groups received saline solution (NaCl 0.9%) intracolonically. Four days after induction of colitis, the colon was resected from anesthetized rats, which were then euthanized by decapitation. Weights of excised colon and spleen were measured, and the colons photographed for scoring of gross morphologic damage according to Table 1 before division into 3 parts. The segment of colon 1 cm from the cecum was fixed in 10% formalin. Other segments were immediately frozen on dry ice. Inflammation was defined as regions of hyperemia and bowel wall thickening. […] [table] For this assay, 5 treatment groups were set up as follows: • Group A (n=3). intracolonic saline with subcutaneous treatment of saline; • Group B (n=8). subcutaneous treatment of saline prior to induction of colitis by 30 mg/kg TNBS; • Group C (n=10). […] Positive control—intramuscular injection of Depo-Medrol 600 μg/kg 60 min prior to induction of colitis by 30 mg/kg TNBS; • Group E (n=10). Positive control, 5-amino salicylic acid (Sigma) suspension at 200 mg/kg intracolonic administration in 0.5 mL saline, 60 min before induction of colitis and daily thereafter. Results

Compound | gross morphologic damage score index | spleen weight (systemic immune suppression)
Nc1ccc(O)c(C(=O)O)c1 [5-ASA, 5-aminosalicylic acid] | 1.62±0.62 | not decreased
CC(=O)OCC(=O)[C@@]1(O)CC[C@H]2[C@@H]3C[C@H](C)C4=CC(=O)C=C[C@]4(C)[C@H]3[C@@H](O)C[C@@]21C [Depo-Medrol] | 1.12±0.26 | decreased
